Data: US5753631A, “Intercellular adhesion mediators” (Cytel Corporation, priority 1995, dated 1998)
Values belong to the compound of their own block, whether it stands above or below them.

Tests used:
[1] = target: T1, P-Selectin (Homo sapiens, UniProt P16109); test: Inhibition of neutrophil adhesion to thrombin activated platelets by glycolipids in liposomes; assay type: cell-based; conditions: for IC50: read-out: AMOUNT REQUIRED FOR 50% INHIBITION
T1 construct: endogenous in cells
T1 sequence (P16109 42-830): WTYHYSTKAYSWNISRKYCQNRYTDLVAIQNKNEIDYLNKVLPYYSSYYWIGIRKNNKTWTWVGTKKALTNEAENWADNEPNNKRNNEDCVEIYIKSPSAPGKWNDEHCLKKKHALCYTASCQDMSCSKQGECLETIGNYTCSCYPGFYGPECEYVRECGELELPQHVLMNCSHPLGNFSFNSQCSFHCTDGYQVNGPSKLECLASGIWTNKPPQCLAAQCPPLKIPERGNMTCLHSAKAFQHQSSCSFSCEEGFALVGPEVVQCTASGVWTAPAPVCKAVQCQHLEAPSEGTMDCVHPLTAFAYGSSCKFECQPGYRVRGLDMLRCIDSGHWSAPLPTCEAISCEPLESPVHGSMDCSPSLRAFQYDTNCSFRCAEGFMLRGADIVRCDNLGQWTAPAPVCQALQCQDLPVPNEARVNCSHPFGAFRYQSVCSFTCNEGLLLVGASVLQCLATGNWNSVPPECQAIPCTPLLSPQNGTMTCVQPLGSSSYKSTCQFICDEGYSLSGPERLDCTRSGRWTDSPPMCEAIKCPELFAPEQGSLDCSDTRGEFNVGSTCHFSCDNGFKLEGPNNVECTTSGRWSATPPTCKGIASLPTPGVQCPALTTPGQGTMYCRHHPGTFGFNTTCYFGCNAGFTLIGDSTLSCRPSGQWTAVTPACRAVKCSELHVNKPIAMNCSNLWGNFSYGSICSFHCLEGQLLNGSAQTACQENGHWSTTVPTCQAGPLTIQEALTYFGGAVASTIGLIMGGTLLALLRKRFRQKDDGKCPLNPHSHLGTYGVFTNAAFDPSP
Procedure: 3. For the assay, 20 μl of the platelet suspension (2×10^8 /ml) was placed in a microcentrifuge tube. […] Twenty μl of the neutrophil preparation (2×10^6 /ml) was then added and the tubes were allowed to stand for a further 20 min at room temperature.
(§1) 4. Adhesion of activated platelets to the neutrophils was assessed microscopically. One hundred neutrophils were evaluated. They were scored as positive if 2 or more platelets were attached and negative if less than 2 platelets were bound. The percent of cells with 2 or more bound platelets was calculated.
This example describes experiments testing various glycolipid structures on liposomes. In particular, SY2, a sialylated polysaccharide in which the fucose, instead of being attached to the ultimate GlcNAc as in SLe^x, is attached to the penultimate GlcNAc, was tested. Platelets and neutrophils were isolated by the methods described above. Platelets were activated with thrombin and then incubated with dilutions of various glycolipids embedded in liposomes prepared as described above. Neutrophils were added and the effect of the glycolipids on the adhesion of neutrophils to activated platelets was determined.
Structures of the various glycolipids examined are as follows: SDiY2, NeuGcα2,3Galβ1,4(Fucα1,3)GlcNacβ1,3Galβ1,4 (Fucα1,3)GlcNAcβ1,3Galβ1,4Glcβ1,1Cer; SLe^x, NeuGcα2,3Galβ1,4 (Fucα1,3)GlcNAcβ1,3Galβ1,4Glcβ1,1Cer; SY2, NeuGcα2,3Galβ1,4 GlcNAcβ1,3Galβ1,4(Fucα1,3)GlcNAcβ1,3Galβ1,4Glcβ1,1Cer; SH, NeuGcα2,3Galβ1,4GlcNAcβ1,3Galβ1,4GlcNAcβ1,3Galβ1,4Glcβ1,1Cer; SPG, NeuGcα2,3Galβ1,4GlcNAcβ1,3Galβ1,4Glcβ1,1Cer.
All materials were prepared as described above. Platelets and neutrophils were isolated by the methods described. Platelets were activated with thrombin and then incubated with dilutions of various glycolipids contained in liposomes. Neutrophils were added and the effect of the glycolipids on the adhesion of neutrophils to activated platelets was determined.
The results of an experiment in which synthetic SLe^x (NeuAc) and a preparation of SLe^x prepared by enzymatic fucosylation of sialylparagloboside purified from bovine erythrocytes, SLe^x (NeuGc), were directly compared are shown in Table 4.

[2] = target: T1, P-Selectin; test: Oligosaccharide/polysaccharide inhibition of neutrophil adhesion to thrombin activated platelets; assay type: cell-based; conditions: Table 6
Procedure: (§2) Briefly, platelets and neutrophils were isolated by the methods described above. Platelets were activated with thrombin and then incubated with dilutions of various oligosaccharides. Neutrophils were added, and the effect of the saccharides on the adhesion of neutrophils to activated platelets was determined.
1. Platelets were isolated as described above and were activated (2×10^8 /ml) by incubation for 20 min at room temperature with thrombin at a final concentration of 0.25 U/ml.
2. Neutrophils were isolated by layering heparinized blood over Mono-Poly Resolving Medium (Ficoll-Hypaque-Flow Laboratories), followed by centrifugation for 25 min at 2000 rpm and then, a further 25 min at 2500 rpm as described above.
3. For the assay, 20 μl of the platelet suspension (2×10^8 /ml) was placed in a microcentrifuge tube. An equal volume of the oligosaccharide preparations at concentrations from 200 μg/ml to 0.3 μg/ml, or of glycolipid-liposome preparations (prepared as described above), at concentrations from 2 μg/ml to 0.25 μg/ml, was added and the tubes were allowed to stand at room temperature for 20 min. Twenty μl of the neutrophil preparation (2×10^6 /ml) was then added and the tubes were allowed to stand for a further 20 min at room temperature.
as §1
as §2, with “added” for “added,”
Platelets were isolated as described above and were activated (2×10^8 /ml) by incubation for 20 min at room temperature with thrombin at a final concentration of 0.25 U/ml.
Neutrophils were isolated by layering heparinized blood over Mono-Poly Resolving Medium (Ficoll-Hypaque, Flow Laboratories), followed by centrifugation for 25 min at […] and then, a further 25 min at 2500 rpm as described above.
For the assay, 20 μl of the platelet suspension (2×10^8 /ml) was placed in an Eppendorf centrifuge tube. An equal volume of the oligosaccharide preparations at concentrations from 500 μg/ml to 2.0 μg/ml was added and the tubes were allowed to stand at room temperature for 20 min. Twenty […] of the neutrophil preparation (2×10^6 /ml) was then added and the tubes were allowed to stand for a further 20 min at room temperature.
as §1, with “Adhesion” for “4. Adhesion”

[3] = Table 3, experiment not specified

AMOUNT REQUIRED FOR 50% INHIBITION [1, 3]: No Inh.
Compound: NeuGcα2,3Galβ1,4GlcNAcβ1,3Galβ1,4GlcNAcβ1,3Galβ1,4Glcβ1,1Cer [SH, reference compound]

IC50 ([1]; Table 3, Exp 1): 325 nM
IC50 ([1]; Table 3, Exp 2): 345 nM
inhibition of P-Selectin mediated adhesion of neutrophils to thrombin activated platelets ([1]; in words, relative): equally as well as did SLe^x and SDiY2
Compound: NeuGcα2,3Galβ1,4 GlcNAcβ1,3Galβ1,4(Fucα1,3)GlcNAcβ1,3Galβ1,4Glcβ1,1Cer [SY2]

Compound: CC(=O)N[C@H]1[C@H]([C@H](O)[C@H](O)CO)O[C@@](O[C@H]2[C@@H](O)[C@@H](CO)O[C@@H](O[C@H]3[C@H](O[C@@H]4O[C@@H](C)[C@@H](O)[C@@H](O)[C@@H]4O)[C@@H](NC(C)=O)C(O)O[C@@H]3CO)[C@@H]2O)(C(=O)O)C[C@@H]1O (stereo partly shown) [SLe^x (NeUAc)]
IC50 ([1]; Table 4): 670 nM

IC50 [1, 3]: 360 nM
Compound: NeuGcα2,3Galβ1,4(Fucα1,3)GlcNacβ1,3Galβ1,4 (Fucα1,3)GlcNAcβ1,3Galβ1,4Glcβ1,1Cer [SdiY2]

Compound: CC(=O)N[C@H]1[C@H](O[C@H]2[C@@H](O)[C@@H](CO)O[C@@H](O[C@H]3[C@H](O)[C@@H](O)C(OCC[Si](C)(C)C)O[C@@H]3CO)[C@@H]2O)O[C@H](CO)[C@@H](O[C@@H]2O[C@H](CO)[C@H](O)[C@H](O[C@]3(C(=O)O)C[C@H](O)[C@@H](NC(C)=O)[C@H]([C@H](O)[C@H](O)CO)O3)[C@H]2O)[C@@H]1O[C@@H]1O[C@@H](C)[C@@H](O)[C@@H](O)[C@@H]1O (stereo partly shown) [SLe^x Hexasaccharide]
IC50 ([2]; read-out: AMOUNT REQUIRED FOR 50% INHIBITION): 6420 nM
IC50 ([2]; read-out: amount for 50% inhibition of P-Selectin mediated binding of neutrophils to thrombin activated platelets): 6420 nM

AMOUNT REQUIRED FOR 50% INHIBITION [2]: No Inhibition
Compound: CC(=O)N[C@H]1[C@H](O[C@H]2[C@@H](O)[C@@H](CO)O[C@@H](O[C@H]3[C@H](O)[C@@H](O)C(O)O[C@@H]3CO)[C@@H]2O)O[C@H](CO)[C@@H](O)[C@@H]1O[C@@H]1O[C@H](CO)[C@H](O)[C@H](O)[C@H]1O[C@@H]1O[C@@H](C)[C@@H](O)[C@@H](O)[C@@H]1O (stereo partly shown) [LNF I, reference compound]

AMOUNT REQUIRED FOR 50% INHIBITION [1, 3]: No Inh.
Compound: NeuGcα2,3Galβ1,4GlcNAcβ1,3Galβ1,4Glcβ1,1Cer [SPG, reference compound]
